Among the test systems are UO-31 renal; SR leukemia; KM12 colon; MOLT-4 leukemia; M14 melanoma; MALME-3M melanoma; EKVX NSCLC; T-47D breast; NCI-H522 lung; SW-620 colon.
Common to all, as to experiment: DTP human tumour cell line panel, 48 h

Where “and” joins values, the source holds several entries; their conditions need not be identical. Equal values may be shown once.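 Grown in 96-well plates, cells were treated for 48 hours with each compound at five concentrations. Insufficient inhibition: endpoint recorded as highest concentration tested. The concentration for 50% growth inhibition is given as GI50. TGI denotes the concentration required for complete inhibition of growth.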

Consider `O=C(Nc1cccc(Cl)c1)Nc1ncc(CCNc2ncnc3ccsc23)s1`, for which the GI50 – broadly, the concentration giving 50% growth inhibition – in the test with UO-31 renal was 6.01 µM and 3.22 µM; in the test with KM12 colon it was 0.12 µM and 0.0657 µM; with MOLT-4 leukemia it was 2.85 µM and 1.73 µM; with M14 melanoma, 2.3 µM and 1.91 µM; in the test with MALME-3M melanoma, 3.23 µM and 4.07 µM; with EKVX NSCLC it was 3.13 µM and 3.14 µM. Besides, the GI50 with T-47D breast was 2.26 µM and 1.27 µM; in the test with NCI-H522 lung, 1.76 µM and 1.34 µM; in the test on SW-620 colon it was 14.5 µM and > 10 µM. For the same compound, the TGI (commonly the concentration at which net growth stops) with UO-31 renal is 28.7 µM and > 10 µM; with SR leukemia, 20.8 µM and > 10 µM; in the test on KM12 colon, greater than 35.3 µM; with MOLT-4 leukemia, > 27.8 µM and 4.99 µM; in the test on M14 melanoma, 11.6 µM and > 10 µM; in the test on MALME-3M melanoma it was 26 µM and > 10 µM. Also, the TGI was 19 µM and > 10 µM in the test with EKVX NSCLC; 7.5 µM and 5.63 µM in the test with T-47D breast; 9.89 µM and > 10 µM in the test on NCI-H522 lung; 65.3 µM and > 10 µM in the test on SW-620 colon.
On to `CCOC(=O)Cc1c[nH]c(=S)[nH]c1=O`, for which the GI50 in the test on UO-31 renal, in the test on SR leukemia, with KM12 colon, with MOLT-4 leukemia, in the test with M14 melanoma and in the test on MALME-3M melanoma was greater than 100 µM each time. The GI50 in the test with EKVX NSCLC, in the test with T-47D breast, in the test with NCI-H522 lung and in the test with SW-620 colon was greater than 100 µM in each case. In addition, the TGI in the test with UO-31 renal, in the test with SR leukemia, in the test on KM12 colon, with MOLT-4 leukemia, in the test on M14 melanoma and in the test with MALME-3M melanoma was greater than 100 µM in each case. Besides, the TGI in the test with EKVX NSCLC, in the test on T-47D breast, with NCI-H522 lung and with SW-620 colon was greater than 100 µM in each case.
With `CCc1ccc(NC(=O)Nc2c[nH]c3ccccc23)cc1`, the GI50 in the test on UO-31 renal is 1.62 µM; in the test with SR leukemia it was 2.2 µM; with KM12 colon, 5.63 µM; in the test on MOLT-4 leukemia, 1.85 µM; with M14 melanoma it was greater than 39.8 µM; in the test on MALME-3M melanoma, 8 µM. The GI50 with EKVX NSCLC is 9.2 µM; in the test with T-47D breast, 16.3 µM; in the test on NCI-H522 lung it was 1.18 µM; in the test with SW-620 colon it was greater than 38.3 µM. Besides, the TGI in the test with UO-31 renal was greater than 58 µM; in the test on SR leukemia, greater than 100 µM; in the test with KM12 colon, greater than 43.4 µM; with MOLT-4 leukemia, greater than 100 µM; in the test on M14 melanoma, greater than 57 µM; with MALME-3M melanoma it was greater than 49.4 µM. Besides, the TGI was greater than 55 µM with EKVX NSCLC, greater than 82.2 µM in the test with T-47D breast, 2.67 µM in the test on NCI-H522 lung and greater than 55 µM with SW-620 colon.
Turning to `N=C(N)c1nn(C2OC(CO)C(O)C2O)c2nc[nH]c(=O)c12` (configuration not stated), the GI50 with UO-31 renal was 0.332 µM; in the test with SR leukemia, 0.34 µM; with KM12 colon, 0.341 µM; with MOLT-4 leukemia it was 0.491 µM; with M14 melanoma it was 0.454 µM; in the test with MALME-3M melanoma, 0.206 µM. Moreover, the GI50 was 0.493 µM in the test on EKVX NSCLC, 0.255 µM with T-47D breast, 0.239 µM in the test with NCI-H522 lung and 0.53 µM in the test with SW-620 colon. Besides, the TGI with UO-31 renal stood at 2.62 µM; in the test on KM12 colon, 1.46 µM; in the test with MOLT-4 leukemia, 4.12 µM; with M14 melanoma, 1.75 µM; in the test with MALME-3M melanoma, 0.612 µM; with EKVX NSCLC, 3.95 µM. Moreover, the TGI in the test with T-47D breast was found to be 2.71 µM; in the test with NCI-H522 lung, 0.69 µM; with SW-620 colon, 3.28 µM.
On to `CC[C@H](Nc1nc(N)nc(C)c1C#N)c1nc2cccc(CN(C)c3ncc(C(=O)NO)cn3)c2c(=O)n1-c1ccccc1`, for which the GI50 in the test with UO-31 renal was 1 µM; with SR leukemia, 0.396 µM; in the test on KM12 colon, 1.26 µM; with MOLT-4 leukemia, 0.204 µM; in the test on M14 melanoma, 1.08 µM; in the test on MALME-3M melanoma it was 0.129 µM. Besides, the GI50 is 1.69 µM in the test on EKVX NSCLC, 0.242 µM in the test on T-47D breast, 0.174 µM in the test on NCI-H522 lung and 0.392 µM in the test with SW-620 colon. The concentration for total growth inhibition (TGI) in the test on UO-31 renal was 3.05 µM; in the test with SR leukemia, greater than 50 µM; in the test with KM12 colon, 5.21 µM; in the test with MOLT-4 leukemia it was greater than 50 µM; with M14 melanoma it was 7.01 µM; with MALME-3M melanoma, 2.47 µM. The TGI in the test on EKVX NSCLC was determined as 16.9 µM; with NCI-H522 lung, 4.27 µM; in the test with SW-620 colon, 3.43 µM.
With `CC1=CC(=O)c2c(O)cccc2C1=O`, the TGI was found to be 2.98 µM in the test with UO-31 renal; 4.95 µM in the test on SR leukemia; 19.5 µM in the test with KM12 colon; 0.762 µM in the test with MOLT-4 leukemia; 3.3 µM in the test on M14 melanoma; 2.19 µM with MALME-3M melanoma. The TGI in the test on EKVX NSCLC worked out at 3.08 µM; with T-47D breast, 2.22 µM; in the test on NCI-H522 lung it was 3.01 µM; with SW-620 colon it was 4.15 µM.
For the compound `COc1ccc(C(=O)/C=C/c2ccc(Cl)cc2)cc1S(=O)(=O)Nc1c(N)nc(SC)[nH]c1=O`, the GI50 in the test on UO-31 renal was 1.89 µM; in the test on SR leukemia, 3.57 µM; with KM12 colon, 2.09 µM; with MOLT-4 leukemia, 3.71 µM; in the test on M14 melanoma it was 2 µM; in the test with MALME-3M melanoma it was 3.02 µM. For the same compound, the GI50 in the test with EKVX NSCLC was 3.94 µM; in the test with T-47D breast, 2.45 µM; with NCI-H522 lung, 1.88 µM; in the test with SW-620 colon, 2.24 µM. The TGI with UO-31 renal is 4.53 µM; in the test with SR leukemia, greater than 100 µM; in the test with KM12 colon it was 4.51 µM; in the test on MOLT-4 leukemia, 18.7 µM; in the test with M14 melanoma, 4.89 µM; with MALME-3M melanoma it was 9.93 µM. In addition, the TGI in the test with EKVX NSCLC was 18.3 µM; in the test with T-47D breast, 9.83 µM; with NCI-H522 lung, 4.08 µM; in the test with SW-620 colon, 5.5 µM.
On to `O=C(O)CSSCC(=O)O`, for which the TGI in the test with UO-31 renal, in the test on SR leukemia, in the test on KM12 colon, in the test with MOLT-4 leukemia, in the test on M14 melanoma and in the test with MALME-3M melanoma was greater than 100 µM each time. The TGI in the test with EKVX NSCLC, in the test on T-47D breast, with NCI-H522 lung and in the test on SW-620 colon was greater than 100 µM throughout.
For the compound `CC(C)(C(=O)NN)c1ccccc1`, the TGI in the test on UO-31 renal, in the test on SR leukemia, with KM12 colon, in the test on MOLT-4 leukemia, in the test on M14 melanoma and in the test with MALME-3M melanoma was greater than 100 µM each time. Further, the TGI with EKVX NSCLC, with T-47D breast, with NCI-H522 lung and with SW-620 colon was greater than 100 µM in each case.

These data come from PubChem BioAssay (NCI).
